Data: PubChem BioAssay AID248 (DTP/NCI, 2004)
Where “and” joins values, the source holds several entries; their conditions need not be identical. Equal values may be shown once. Toxic doses and inconclusive results are not listed. No stated cut-off is given here; in the data, active means T/C of 150% or more; inactive means T/C below 125%.

Test system: L1210 leukemia ip in BDF1 mice, survival T/C
Test: NCI In Vivo Anticancer Drug Screen. Data for tumor model L1210 Leukemia (intraperitoneal) in B6D2F1 (BDF1) mice
Conditions: endpoint: mean survival time, higher = longer survival
How it was run: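 Survival endpoint. Drug-treated group vs vehicle group, expressed as T divided by C. Tumor passaged by transplantation.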

[1] = dose: 100.0 mg/kg/injection, schedule: Q01DX009 (ip), vehicle: saline with Tween-80
[2] = dose: 100.0 mg/kg/injection, schedule: Q04DX003 (ip), vehicle: saline with Tween-80
[3] = dose: 200.0 mg/kg/injection, schedule: Q01DX009 (ip), vehicle: saline with Tween-80
[4] = dose: 200.0 mg/kg/injection, schedule: Q04DX003 (ip), vehicle: saline with Tween-80
[5] = dose: 400.0 mg/kg/injection, schedule: Q01DX009 (ip), vehicle: saline with Tween-80
[6] = dose: 400.0 mg/kg/injection, schedule: Q04DX003 (ip), vehicle: saline with Tween-80
[7] = dose: 75.0 mg/kg/injection, schedule: Q01DX001 (ip), vehicle: other
[8] = dose: 150.0 mg/kg/injection, schedule: Q01DX001 (ip), vehicle: other
[9] = dose: 100.0 mg/kg/injection, schedule: Q04DX002 (ip), vehicle: Klucel (hydroxypropylcellulose) (HPC)
[10] = dose: 200.0 mg/kg/injection, schedule: Q04DX002 (ip), vehicle: Klucel (hydroxypropylcellulose) (HPC)
[11] = dose: 100.0 mg/kg/injection, schedule: Q01DX001 (ip), vehicle: Klucel (hydroxypropylcellulose) (HPC)
[12] = dose: 100.0 mg/kg/injection, schedule: Q04DX003 (ip), vehicle: Klucel (hydroxypropylcellulose) (HPC)
[13] = dose: 200.0 mg/kg/injection, schedule: Q01DX001 (ip), vehicle: Klucel (hydroxypropylcellulose) (HPC)
[14] = dose: 400.0 mg/kg/injection, schedule: Q01DX001 (ip), vehicle: Klucel (hydroxypropylcellulose) (HPC)
[15] = dose: 400.0 mg/kg/injection, schedule: Q04DX003 (ip), vehicle: Klucel (hydroxypropylcellulose) (HPC)
[16] = dose: 100.0 mg/kg/injection, schedule: Q01DX009 (ip), vehicle: Klucel (hydroxypropylcellulose) (HPC)
[17] = dose: 200.0 mg/kg/injection, schedule: Q01DX009 (ip), vehicle: Klucel (hydroxypropylcellulose) (HPC)
[18] = dose: 200.0 mg/kg/injection, schedule: Q04DX003 (ip), vehicle: Klucel (hydroxypropylcellulose) (HPC)
[19] = dose: 75.0 mg/kg/injection, schedule: Q01DX001 (ip), vehicle: saline
[20] = dose: 150.0 mg/kg/injection, schedule: Q01DX001 (ip), vehicle: saline
[21] = dose: 300.0 mg/kg/injection, schedule: Q01DX001 (ip), vehicle: saline
[22] = dose: 25.0 mg/kg/injection, schedule: Q01DX009 (ip), vehicle: saline with Tween-80
[23] = dose: 50.0 mg/kg/injection, schedule: Q01DX009 (ip), vehicle: saline with Tween-80
[24] = dose: 50.0 mg/kg/injection, schedule: Q01DX009 (ip), vehicle: Klucel (hydroxypropylcellulose) (HPC)

Measured: T/C

COC(OC)c1[nH]c(=S)[nH]c(=O)c1Cc1cc([N+](=O)[O-])ccc1O
inactive: [1] 100 % of control | [2] 101 % of control | [3] 91 % of control | [4] 97 % of control | [5] 93 % of control | [6] 94 % of control

Clc1ccc2c(NCCN3CCCCCC3)nc(C(Cl)(Cl)Cl)nc2c1
inactive: [7] 103 % of control | [8] 97 % of control

O=C(O)CCCCCCCCCCCCCCC(=O)O
inactive: [9] 93 % of control and 97 % of control | [10] 101 % of control | dose: 400.0 mg/kg/injection, schedule: Q04DX002 (ip), vehicle: Klucel (hydroxypropylcellulose) (HPC) 93 % of control and 101 % of control

O=P(C1CCCC1)(C1CCCC1)C1CCCC1
inactive: dose: 100.0 mg/kg/injection, schedule: Q01DX001 (ip), vehicle: saline with Tween-80 100 % of control | dose: 200.0 mg/kg/injection, schedule: Q01DX001 (ip), vehicle: saline with Tween-80 94 % of control | dose: 400.0 mg/kg/injection, schedule: Q01DX001 (ip), vehicle: saline with Tween-80 92 % of control

O=c1oc(-c2cccc([N+](=O)[O-])c2)nc2cc(Cl)ccc12
inactive: dose: 50.0 mg/kg/injection, schedule: Q04DX002 (ip), vehicle: saline with Tween-80 90 % of control | dose: 100.0 mg/kg/injection, schedule: Q04DX002 (ip), vehicle: saline with Tween-80 93 % of control | dose: 200.0 mg/kg/injection, schedule: Q04DX002 (ip), vehicle: saline with Tween-80 93 % of control | dose: 400.0 mg/kg/injection, schedule: Q04DX002 (ip), vehicle: saline with Tween-80 107 % of control

CCOC(=O)CCc1c(C)[nH]c(C(=O)OCC)c1C
inactive: [11] 98 % of control | [12] 92 % of control | [13] 97 % of control | [14] 97 % of control | [15] 108 % of control

Cc1ccc(-n2c(=S)[nH]c3ccccc3c2=O)cc1C
inactive: [16] 90 % of control | [12] 96 % of control | [17] 90 % of control | [18] 93 % of control | dose: 400.0 mg/kg/injection, schedule: Q01DX009 (ip), vehicle: Klucel (hydroxypropylcellulose) (HPC) 92 % of control | [15] 93 % of control

O=[N+]([O-])c1ccc(-c2cccc3ccccc23)c([N+](=O)[O-])c1
inactive: dose: 100.0 mg/kg/injection, schedule: Q01DX001 (ip), vehicle: carboxymethylcellulose (CMC) 96 % of control | dose: 400.0 mg/kg/injection, schedule: Q01DX001 (ip), vehicle: carboxymethylcellulose (CMC) 91 % of control

Oc1ccc(C/C=C/c2ccccc2)cc1
inactive: [1] 98 % of control | [3] 96 % of control | [5] 102 % of control

CNC(=O)NCC1OC(OC)C(O)C(O)C1O (stereo not drawn)
inactive: [12] 100 % of control | [18] 107 % of control | [15] 100 % of control

Cc1cc(C#N)cc(C)c1N
inactive: [7] 100 % of control | [8] 95 % of control | dose: 300.0 mg/kg/injection, schedule: Q01DX001 (ip), vehicle: other 105 % of control

CCCC(C)CC1CCCCC1=O (stereo not drawn)
inactive: dose: 75.0 mg/kg/injection, schedule: Q04DX003 (ip), vehicle: saline 97 % of control | dose: 150.0 mg/kg/injection, schedule: Q04DX003 (ip), vehicle: saline 96 % of control | dose: 300.0 mg/kg/injection, schedule: Q04DX003 (ip), vehicle: saline 103 % of control

COc1ccc(Nc2ccc(OC)cc2C(=O)O)cc1
inactive: [19] 102 % of control | dose: 75.0 mg/kg/injection, schedule: Q01DX009 (ip), vehicle: saline 89 % of control | [20] 102 % of control | dose: 150.0 mg/kg/injection, schedule: Q01DX009 (ip), vehicle: saline 104 % of control | [21] 104 % of control | dose: 300.0 mg/kg/injection, schedule: Q01DX009 (ip), vehicle: saline 101 % of control

CCOC(=O)c1cc2cc([N+](=O)[O-])ccc2oc1=O
inactive: [12] 93 % of control | [18] 93 % of control | [15] 94 % of control

COC(CN(C)Cc1ccccc1)OC
inactive: [19] 107 % of control | [20] 104 % of control | [21] 102 % of control

CN1CCN(C(=O)Nc2cccc(F)c2)CC1
inactive: [22] 97 % of control | [23] 101 % of control | [1] 94 % of control and 96 % of control

CC(C)(CO)NC=O (tested in a mixture with another compound)
inactive: dose: 50.0 mg/kg/injection, schedule: Q01DX009 (ip), vehicle: saline 107 % of control | dose: 100.0 mg/kg/injection, schedule: Q01DX009 (ip), vehicle: saline 113 % of control | dose: 200.0 mg/kg/injection, schedule: Q01DX009 (ip), vehicle: saline 113 % of control

O=C(O)CSc1cc(Cl)ccc1Cl
inactive: dose: 12.5 mg/kg/injection, schedule: Q01DX009 (ip), vehicle: Klucel (hydroxypropylcellulose) (HPC) 102 % of control | dose: 25.0 mg/kg/injection, schedule: Q01DX009 (ip), vehicle: Klucel (hydroxypropylcellulose) (HPC) 100 % of control | [24] 106 % of control and 121 % of control | [16] 104 % of control and 92 % of control | [9] 104 % of control | [17] 105 % of control | [10] 110 % of control

CN1c2ccc(Br)c[c]2[Sn]2([c]3cc(Br)ccc31)[c]1cc(Br)ccc1N(C)c1ccc(Br)c[c]12
inactive: dose: 100.0 mg/kg/injection, schedule: Q01DX001 (ip), vehicle: steriod suspending solution 104 % of control | dose: 200.0 mg/kg/injection, schedule: Q01DX001 (ip), vehicle: steriod suspending solution 107 % of control | dose: 400.0 mg/kg/injection, schedule: Q01DX001 (ip), vehicle: steriod suspending solution 109 % of control

CCCCc1c(N)nc(=S)[nH]c1C(=O)O
inactive: dose: 75.0 mg/kg/injection, schedule: Q01DX009 (ip), vehicle: Klucel (hydroxypropylcellulose) (HPC) 98 % of control | [12] 95 % of control | dose: 150.0 mg/kg/injection, schedule: Q01DX009 (ip), vehicle: Klucel (hydroxypropylcellulose) (HPC) 106 % of control | [18] 98 % of control and 91 % of control | dose: 300.0 mg/kg/injection, schedule: Q01DX009 (ip), vehicle: Klucel (hydroxypropylcellulose) (HPC) 108 % of control | [15] 96 % of control

c1ccc([C@H]2O[C@@H]2c2ccccc2)cc1
inactive: dose: 12.5 mg/kg/injection, schedule: Q01DX009 (ip), vehicle: saline with Tween-80 91 % of control | dose: 12.5 mg/kg/injection, schedule: Q04DX003 (ip), vehicle: saline with Tween-80 96 % of control | [22] 96 % of control | dose: 25.0 mg/kg/injection, schedule: Q04DX003 (ip), vehicle: saline with Tween-80 93 % of control | [23] 94 % of control | dose: 50.0 mg/kg/injection, schedule: Q04DX003 (ip), vehicle: saline with Tween-80 96 % of control | [11] 97 % of control | [12] 92 % of control | [13] 101 % of control | [18] 101 % of control | [14] 103 % of control | [15] 97 % of control

c1ccc(NP2(Nc3ccccc3)=NP(Nc3ccccc3)(Nc3ccccc3)=NP(Nc3ccccc3)(Nc3ccccc3)=N2)cc1
inactive: [19] 96 % of control | [12] 99 % of control | [20] 101 % of control | [18] 89 % of control | [21] 91 % of control

COC(=O)C(Cl)(Cl)C1(c2ccccc2)OCC(C)(C)N1C(=O)C(Cl)Cl (stereo not drawn)
inactive: [2] 115 % of control | [4] 94 % of control | [6] 103 % of control

O=C1c2ccccc2-c2ccc(Br)c3cccc1c23
inactive: [24] 93 % of control | dose: 50.0 mg/kg/injection, schedule: Q04DX003 (ip), vehicle: Klucel (hydroxypropylcellulose) (HPC) 100 % of control | [16] 91 % of control | [12] 95 % of control | [17] 91 % of control | [18] 100 % of control
